{"source": "paper PMC9178010", "about": "“Identification and characterization of a prokaryotic 6-4 photolyase from Synechococcus elongatus with a deazariboflavin antenna chromophore” (Nucleic Acids Research, 2022)", "assay_type_in_all_cases": "binding", "key": {"AfPhrB": {"biological_target": "T1, AfPhrB (Agrobacterium fabrum, UniProt A9CH39)", "T1 construct": "gene phrB; synthetic phrB gene in pET22b, E. coli BL21(DE3), Ni-NTA and Superdex 200", "T1 sequence (A9CH39 whole entry)": "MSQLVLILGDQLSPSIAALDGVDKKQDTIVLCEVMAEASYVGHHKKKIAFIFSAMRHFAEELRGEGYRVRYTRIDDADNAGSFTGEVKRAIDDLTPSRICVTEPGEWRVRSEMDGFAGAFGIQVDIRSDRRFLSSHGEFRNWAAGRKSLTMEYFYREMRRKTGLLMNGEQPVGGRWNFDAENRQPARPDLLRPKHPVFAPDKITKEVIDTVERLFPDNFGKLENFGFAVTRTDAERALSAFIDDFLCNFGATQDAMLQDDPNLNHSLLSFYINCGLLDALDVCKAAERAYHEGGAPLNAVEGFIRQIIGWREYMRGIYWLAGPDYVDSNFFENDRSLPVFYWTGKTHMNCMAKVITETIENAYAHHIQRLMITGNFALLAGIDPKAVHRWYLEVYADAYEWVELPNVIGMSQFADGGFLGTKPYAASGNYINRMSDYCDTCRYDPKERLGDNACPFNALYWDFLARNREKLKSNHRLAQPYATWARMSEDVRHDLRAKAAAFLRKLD", "assay": "co-purified cofactor; absorption, fluorescence and TLC of denatured protein", "conditions": "co-purified from E. coli"}, "[1]": {"biological_target": "T2, SePhrB (SePhrB[Ec]; SePhrB[ScFbiC]; SePhrB[8-HDF]) (Synechococcus elongatus, UniProt Q31P18)", "T2 construct": "gene Synpcc7942_1171; full-length gene in pET22b, E. coli BL21(DE3), Ni-NTA and Superdex 200; iron-sulfur cluster protein; expressed alone or with S. coelicolor FbiC", "T2 sequence (Q31P18 1-503)": "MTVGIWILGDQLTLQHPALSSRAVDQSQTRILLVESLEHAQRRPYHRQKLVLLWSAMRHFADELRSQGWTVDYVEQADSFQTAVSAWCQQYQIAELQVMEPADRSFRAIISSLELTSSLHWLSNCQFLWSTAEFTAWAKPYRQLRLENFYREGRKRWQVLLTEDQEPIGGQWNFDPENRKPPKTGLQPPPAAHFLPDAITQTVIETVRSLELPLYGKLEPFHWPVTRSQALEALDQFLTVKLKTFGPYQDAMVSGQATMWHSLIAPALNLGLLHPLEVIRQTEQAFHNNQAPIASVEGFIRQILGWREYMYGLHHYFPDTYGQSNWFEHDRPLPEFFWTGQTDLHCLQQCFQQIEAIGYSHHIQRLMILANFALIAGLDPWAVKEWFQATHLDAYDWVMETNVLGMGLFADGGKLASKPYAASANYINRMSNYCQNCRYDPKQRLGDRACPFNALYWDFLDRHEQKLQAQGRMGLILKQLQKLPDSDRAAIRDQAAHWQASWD", "assay": "co-purified cofactor; absorption, fluorescence and TLC of denatured protein"}, "SePhrA (SePhrA[ScFbiC]) [2]": {"biological_target": "T3, SePhrA (SePhrA[ScFbiC]) (Synechococcus elongatus, UniProt Q31S25)", "T3 construct": "gene Synpcc7942_0112; full-length gene in pET22b, E. coli BL21(DE3), co-expressed with S. coelicolor FbiC; Ni-NTA and Superdex 200", "T3 sequence (Q31S25 1-484)": "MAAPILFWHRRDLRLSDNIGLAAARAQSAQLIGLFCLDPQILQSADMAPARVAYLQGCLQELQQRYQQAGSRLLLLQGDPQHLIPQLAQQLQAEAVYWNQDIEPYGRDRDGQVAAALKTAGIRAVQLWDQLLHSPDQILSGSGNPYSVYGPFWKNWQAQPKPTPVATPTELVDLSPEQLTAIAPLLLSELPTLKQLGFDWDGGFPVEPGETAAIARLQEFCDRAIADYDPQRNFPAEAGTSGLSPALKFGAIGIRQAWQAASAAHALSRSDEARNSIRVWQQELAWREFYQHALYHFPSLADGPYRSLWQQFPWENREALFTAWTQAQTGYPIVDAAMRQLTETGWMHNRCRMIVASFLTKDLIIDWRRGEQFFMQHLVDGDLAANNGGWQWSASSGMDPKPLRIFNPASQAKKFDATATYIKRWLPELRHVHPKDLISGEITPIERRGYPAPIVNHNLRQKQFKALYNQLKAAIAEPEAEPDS", "assay": "TLC of denatured protein supernatant", "conditions": "catalytic cofactor; co-expressed with S. coelicolor FO synthase FbiC"}, "SePhrA (SePhrA[ScFbiC]) [3]": {"biological_target": "T3, SePhrA (SePhrA[ScFbiC])", "assay": "co-purified cofactor; absorption, fluorescence and TLC of denatured protein", "conditions": "antenna chromophore; co-expressed with S. coelicolor FO synthase FbiC"}}}
{"smiles": "Cc1nc2c(=O)[nH]c(=O)nc-2n(C[C@H](O)[C@H](O)[C@H](O)CO)c1C", "note": "[DMRL, 6,7-dimethyl-8-ribityllumazine]", "values": [{"measurement": "co-purified cofactor; absorption, fluorescence and TLC of denatured protein", "setting": "AfPhrB; antenna chromophore", "value": "a yellow fluorescent band of FAD, and a blue-green fluorescent band of DMRL"}]}
{"smiles": "Cc1cc2nc3c(=O)[nH]c(=O)nc-3n(C[C@H](O)[C@H](O)[C@H](O)COP(=O)(O)OP(=O)(O)OC[C@H]3O[C@@H](n4cnc5c(N)ncnc54)[C@H](O)[C@@H]3O)c2cc1C", "note": "[FAD]", "values": [{"measurement": "co-purified cofactor; absorption, fluorescence and TLC of denatured protein", "setting": "[1]; catalytic cofactor, expressed in E. coli without FbiC, fully oxidized as purified", "value": "SePhrB[Ec] gave only one yellow fluorescent band with the same Rf value of authentic FAD"}, {"measurement": "co-purified cofactor; absorption, fluorescence and TLC of denatured protein", "setting": "AfPhrB; catalytic cofactor", "value": "the supernatant of AfphrB produced a yellow fluorescent band of FAD"}, {"measurement": "TLC of denatured protein supernatant", "setting": "SePhrA (SePhrA[ScFbiC]) [2]", "value": "each of them had a yellow FAD band"}]}
{"smiles": "O=c1nc2n(C[C@H](O)[C@H](O)[C@H](O)CO)c3cc(O)ccc3cc-2c(=O)[nH]1", "note": "[8-HDF, 7,8-didemethyl-8-hydroxy-5-deazariboflavin]", "values": [{"measurement": "co-purified cofactor; absorption, fluorescence and TLC of denatured protein", "setting": "[1]; antenna chromophore, co-expressed with S. coelicolor FO synthase FbiC", "value": "SePhrB associates with FAD and 8-HDF when co-expressed with the ScFbiC"}, {"measurement": "co-purified cofactor; absorption, fluorescence and TLC of denatured protein", "setting": "SePhrA (SePhrA[ScFbiC]) [3]", "value": "an additional bright blue band that was attributed to 8-HDF"}]}
